Source: publication PMC8607797 (Nature chemical biology, 2021)

What was measured:
Assay type in all cases: cell-based
Ephx1 = target: T1, Ephx1 (Mus musculus, UniProt Q9D379); experiment: live-cell chemoproteomic competition of probe […]
T1 sequence (Q9D379 1-455): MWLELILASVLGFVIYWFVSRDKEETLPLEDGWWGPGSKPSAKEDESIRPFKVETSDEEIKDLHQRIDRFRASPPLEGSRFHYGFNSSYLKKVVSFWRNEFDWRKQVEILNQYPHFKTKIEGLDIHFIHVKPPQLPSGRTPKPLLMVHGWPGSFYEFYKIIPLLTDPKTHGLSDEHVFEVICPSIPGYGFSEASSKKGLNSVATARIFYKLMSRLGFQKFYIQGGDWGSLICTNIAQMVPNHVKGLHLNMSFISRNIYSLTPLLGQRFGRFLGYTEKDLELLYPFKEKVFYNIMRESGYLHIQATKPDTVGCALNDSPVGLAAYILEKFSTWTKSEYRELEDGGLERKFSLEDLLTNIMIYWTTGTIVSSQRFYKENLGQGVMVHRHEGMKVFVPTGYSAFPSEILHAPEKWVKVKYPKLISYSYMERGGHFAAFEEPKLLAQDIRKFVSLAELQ

Cav1 = target: T2, Cav1 (Mus musculus, UniProt P49817); experiment: live-cell chemoproteomic competition of probe […]
T2 sequence (P49817 2-178): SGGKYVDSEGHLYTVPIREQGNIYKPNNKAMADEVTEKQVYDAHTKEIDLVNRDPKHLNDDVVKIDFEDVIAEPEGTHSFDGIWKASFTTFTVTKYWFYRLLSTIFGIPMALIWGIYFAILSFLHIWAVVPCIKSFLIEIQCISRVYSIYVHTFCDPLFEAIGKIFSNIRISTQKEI

Tmem97 (σ2 receptor) = target: T3, Tmem97 (σ2 receptor) (Mus musculus, UniProt Q8VD00); experiment: live-cell competition of probe […] labeling, in-gel fluorescence
T3 sequence (Q8VD00 1-176): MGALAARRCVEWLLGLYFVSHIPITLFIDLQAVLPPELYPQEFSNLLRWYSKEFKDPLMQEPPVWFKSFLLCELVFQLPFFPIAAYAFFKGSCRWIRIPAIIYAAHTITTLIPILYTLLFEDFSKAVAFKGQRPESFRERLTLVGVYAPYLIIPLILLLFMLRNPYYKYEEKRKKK

Structure (SMILES) | live-cell chemoproteomic competition of probe 2 (TMT MS) (Ephx1) | live-cell chemoproteomic competition of probe 2 (TMT MS) (Cav1) | live-cell competition of probe 2 labeling, in-gel fluorescence (Tmem97 (σ2 receptor)) [% competition at 50]
CC(C)CCC[C@](C)(O)[C@H]1CC[C@H]2[C@@H]3CC=C4C[C@@H](O)CC[C@]4(C)[C@H]3CC[C@@]21C [compound 1, 20(S)-hydroxycholesterol] | The most competable proteins encompassed the highly enriched targets Tmem97, Ephx1, and Cav1 | The most competable proteins encompassed the highly enriched targets Tmem97, Ephx1, and Cav1 | –
CC(C)CCC[C@@](C)(O)[C@H]1CC[C@H]2[C@@H]3CC=C4C[C@@H](O)CC[C@]4(C)[C@H]3CC[C@@]21C [compound 13, 20(R)-hydroxycholesterol] | – | – | 50
